What follows are compounds tested against Human FXIIa (Homo sapiens (Human), UniProt P00748) (assay: Factor XIIa (FXIIa) inhibitory activity, chromogenic substrate (Pefachrome XIIa) cleavage). Settings: 10 min pre-incubation, Pefachrome XIIa 400 μM.
Format: biochemical
Procedure: Factor XIIa (FXIIa) Inhibitory Activity:
In a 96-well clear bottom plate, 80 μl of assay buffer was added to each well. Assay buffer consists of 0.5× Hank's Balanced Salt Solution (Invitrogen), buffered with 25 mM HEPES pH 7.4 (Invitrogen) and 0.5× Tris-buffered saline with Tween-20 0.05% (Santa Cruz Biotechnology). Test compounds were first dissolved in DMSO (Sigma) and then 4 μl were added to test wells containing assay buffer. Serial dilutions using an automated multi-channel pipette were used to generate a concentration range of approximately 1-100 μM. Human FXIIa (Enzyme Research Labs) was diluted in assay buffer to a final concentration of 12.5 nM. 80 μl of this enzyme solution was added to the assay wells. The enzyme/compound mixtures were incubated for 10 minutes at room temperature. Chromogenic substrate (Pefachrome XIIa; Enzyme Research Labs) was added to assay wells at a final concentration of 400 μM. The assay plate was spun for 1 minute at 1500 g and then read at 37° C. in a SpectraMax M2 plate reader (λ=405 nm). Activity was quantified as the rate of change in absorbance, which corresponds to the rate of substrate cleavage. IC50 values were determined as the concentration of inhibitor that produced 50% of the rate of change of control wells without any inhibitor. For compounds with activity <1 μM, the assay was repeated with a lower concentration range, typically from 10-1000 nM.

Human FXIIa, sequence (P00748 373-615): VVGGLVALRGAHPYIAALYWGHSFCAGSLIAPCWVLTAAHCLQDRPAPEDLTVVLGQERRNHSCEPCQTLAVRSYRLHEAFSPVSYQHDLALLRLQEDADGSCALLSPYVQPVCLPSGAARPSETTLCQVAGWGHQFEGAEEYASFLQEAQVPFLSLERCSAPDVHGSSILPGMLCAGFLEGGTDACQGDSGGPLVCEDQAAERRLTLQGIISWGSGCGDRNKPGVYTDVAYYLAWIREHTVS
Human FXIIa, sequence (P00748 20-372 partner): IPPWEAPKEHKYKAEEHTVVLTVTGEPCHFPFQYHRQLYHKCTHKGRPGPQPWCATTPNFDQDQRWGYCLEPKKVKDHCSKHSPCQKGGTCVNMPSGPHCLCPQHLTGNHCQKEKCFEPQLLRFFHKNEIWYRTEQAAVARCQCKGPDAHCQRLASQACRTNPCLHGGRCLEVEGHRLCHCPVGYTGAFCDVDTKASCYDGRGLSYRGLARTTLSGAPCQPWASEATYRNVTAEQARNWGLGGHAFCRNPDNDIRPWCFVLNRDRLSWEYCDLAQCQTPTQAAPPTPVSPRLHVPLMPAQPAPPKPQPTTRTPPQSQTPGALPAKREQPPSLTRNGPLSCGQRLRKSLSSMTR

First: CS(=O)(=O)N1CCc2c(N)nn(C(=O)C3CCNc4ncccc43)c2C1 (centres unmarked) [Example 42, (3-amino-6-(methylsulfonyl)-4,5,6,7-tetrahydropyrazolo[3,4-c]pyridin-1-yl)(1,2,3,4-tetrahydro-1,8-naphthyridin-4-yl)methanone]
Second: CS(=O)(=O)N1CCc2c(N)nn(C(=O)C3CCNc4c(Cl)cccc43)c2C1 (centres unmarked) [Example 58, (3-amino-6-(methylsulfonyl)-4,5,6,7-tetrahydropyrazolo[3,4-c]pyridin-1-yl)(8-chloro-1,2,3,4-tetrahydroquinolin-4-yl)methanone]
The IC50 of the first is higher: greater than 80 µM for the first, 60 µM for the second. The second is the more potent here.

Compared with CS(=O)(=O)N1CCc2c(nn(C(=O)C3CC(=O)Nc4ccc(F)cc43)c2N)C1 (centres unmarked) [Example 43, 4-(3-amino-6-(methylsulfonyl)-4,5,6,7-tetrahydro-2H-pyrazolo[3,4-c]pyridine-2-carbonyl)-6-fluoro-3,4-dihydroquinolin-2(1H)-one], CC(=O)Nc1ccc2c(c1)C(C(=O)n1nc3c(c1N)CCN(S(C)(=O)=O)C3)CCN2 (centres unmarked) [Example 47, N-(4-(3-amino-6-(methylsulfonyl)-4,5,6,7-tetrahydro-2H-pyrazolo[3,4-c]pyridine-2-carbonyl)-1,2,3,4-tetrahydroquinolin-6-yl)acetamide] is 2.1-fold higher in IC50: 4 µM for the first, 8.5 µM for the second.

First: CC(C)c1ccc2c(c1)C(C(=O)n1nc(N)c3c1CN(S(C)(=O)=O)CC3)CCN2 (centres unmarked) [Example 46, (3-amino-6-(methylsulfonyl)-4,5,6,7-tetrahydropyrazolo[3,4-c]pyridin-1-yl)(6-isopropyl-1,2,3,4-tetrahydroquinolin-4-yl)methanone]
Second: CC(C)S(=O)(=O)N1CCc2c(N)nn(C(=O)C3CCNc4ccc(F)cc43)c2C1 (centres unmarked) [Example 137, (3-amino-6-(isopropyl-sulfonyl)-4,5,6,7-tetrahydro-pyrazolo[3,4-c]pyridin-1-yl)(6-fluoro-1,2,3,4-tetrahydro-quinolin-4-yl)methanone]
The IC50 of the first is higher: greater than 80 µM for the first, 7 µM for the second. The second is the more potent here.

CC(=O)Nc1ccc2c(c1)C(C(=O)n1nc(N)c3c1CN(S(C)(=O)=O)CC3)CCN2 (centres unmarked) [Example 48, N-(4-(3-amino-6-(methylsulfonyl)-4,5,6,7-tetrahydro-1H-pyrazolo[3,4-c]pyridine-1-carbonyl)-1,2,3,4-tetrahydroquinolin-6-yl)acetamide] and CCc1cccc2c1NCCC2C(=O)n1nc(N)c2c1CN(S(C)(=O)=O)CC2 (centres unmarked) [Example 66, (3-amino-6-(methylsulfonyl)-4,5,6,7-tetrahydropyrazolo[3,4-c]pyridin-1-yl)(8-ethyl-1,2,3,4-tetrahydroquinolin-4-yl)methanone] cannot be ordered by IC50: greater than 30 µM for the first, greater than 100 µM for the second.

CS(=O)(=O)N1CCc2c(N)nn(C(=O)C3CCNc4ccc(-c5ccccc5)cc43)c2C1 (centres unmarked) [Example 50, (3-amino-6-(methylsulfonyl)-4,5,6,7-tetrahydropyrazolo[3,4-c]pyridin-1-yl)(6-phenyl-1,2,3,4-tetrahydroquinolin-4-yl)methanone] and COc1cccc2c1NCCC2C(=O)n1nc(N)c2c1CN(S(C)(=O)=O)CC2 (centres unmarked) [Example 62, (3-amino-6-(methylsulfonyl)-4,5,6,7-tetrahydropyrazolo[3,4-c]pyridin-1-yl)(8-methoxy-1,2,3,4-tetrahydroquinolin-4-yl)methanone] cannot be ordered by IC50: greater than 80 µM for the first, greater than 65 µM for the second.

Going from Cc1cc(F)cc2c1NCCC2C(=O)n1nc(N)c2c1CN(S(C)(=O)=O)CC2 (centres unmarked) [Example 52, (3-amino-6-(methylsulfonyl)-4,5,6,7-tetrahydropyrazolo[3,4-c]pyridin-1-yl)(6-fluoro-8-methyl-1,2,3,4-tetrahydroquinolin-4-yl)methanone] to CCc1cc(C)c2c(c1)C(C(=O)n1nc(N)c3c1CN(S(C)(=O)=O)CC3)CCN2 (centres unmarked) [Example 56, (3-amino-6-(methylsulfonyl)-4,5,6,7-tetrahydropyrazolo[3,4-c]pyridin-1-yl)(6-ethyl-8-methyl-1,2,3,4-tetrahydroquinolin-4-yl)methanone], the IC50 rises from 32 µM to greater than 65 µM.

Going from CCc1cccc2c1NCCC2C(=O)n1nc2c(c1N)CCN(S(C)(=O)=O)C2 (centres unmarked) [Example 65, (3-amino-6-(methylsulfonyl)-4,5,6,7-tetrahydropyrazolo[3,4-c]pyridin-2-yl)(8-ethyl-1,2,3,4-tetrahydroquinolin-4-yl)methanone] to CS(=O)(=O)N1CCc2c(N)nn(C(=O)C3CCNc4c3cccc4C(F)(F)F)c2C1 (centres unmarked) [Example 68, (3-amino-6-(methylsulfonyl)-4,5,6,7-tetrahydropyrazolo[3,4-c]pyridin-1-yl)(8-(trifluoromethyl)-1,2,3,4-tetrahydroquinolin-4-yl)methanone], the IC50 rises from 0.09 µM to greater than 90 µM. The first is the more potent here.

Going from Nc1nn(C(=O)C2CCNc3c(Cl)cccc32)c2c1CCNC2 (centres unmarked) [Example 71, (3-amino-4,5,6,7-tetrahydropyrazolo[3,4-c]pyridin-1-yl)(8-chloro-1,2,3,4-tetrahydroquinolin-4-yl)methanone] to Nc1nn(C(=O)C2CCNc3ccc(F)cc32)c2c1COCC2 (centres unmarked) [Example 75, (3-amino-6,7-dihydropyrano[4,3-c]pyrazol-1(4H)-yl)(6-fluoro-1,2,3,4-tetrahydroquinolin-4-yl)methanone], the IC50 rises from 5 µM to 25 µM (5-fold). The first is the more potent here.

Going from CN1CCc2nn(C(=O)C3CCNc4ccccc43)c(N)c2C1 (centres unmarked) [Example 86, (3-amino-5-methyl-4,5,6,7-tetrahydro-pyrazolo[4,3-c]pyridin-2-yl)(1,2,3,4-tetrahydro-quinolin-4-yl)methanone] to COC(=O)N1CCc2c(c(N)nn2C(=O)C2CCNc3ccccc32)C1 (centres unmarked) [Example 88, methyl 3-amino-1-(1,2,3,4-tetrahydro-quinoline-4-carbonyl)-6,7-dihydro-1H-pyrazolo[4,3-c]pyridine-5(4H)-carboxylate], the IC50 rises from 1.25 µM to 80 µM (64-fold). The first is the more potent here.

Going from Cc1cc2c(C(=O)n3nc(N)c4c3CN(S(C)(=O)=O)CC4)cccc2[nH]1 [Example 102, (3-amino-6-(methylsulfonyl)-4,5,6,7-tetrahydro-pyrazolo[3,4-c]pyridin-1-yl)(2-methyl-1H-indol-4-yl)methanone] to CS(=O)(=O)N1CCc2c(N)nn(C(=O)C3CCCc4[nH]c(Cl)cc43)c2C1 (centres unmarked) [Example 133, (3-amino-6-(methylsulfonyl)-4,5,6,7-tetrahydro-pyrazolo[3,4-c]pyridin-1-yl)(2-chloro-4,5,6,7-tetrahydro-1H-indol-4-yl)methanone], the IC50 rises from 1.2 µM to 45 µM (38-fold).

COC(=O)N1CCc2c(N)nn(C(=O)C3CCNc4ccccc43)c2C1 (centres unmarked) [Example 115, methyl 3-amino-1-(1,2,3,4-tetrahydro-quinoline-4-carbonyl)-4,5-dihydro-1H-pyrazolo[3,4-c]pyridine-6(7H)-carboxylate] and Nc1nn(C(=O)C2CCNc3ccc(F)cc32)c2c1CCN(S(=O)(=O)CF)C2 (centres unmarked) [Example 141, (3-amino-6-(fluoromethyl-sulfonyl)-4,5,6,7-tetrahydro-pyrazolo(3,4-c]pyridin-1-yl)(6-fluoro-1,2,3,4-tetrahydro-quinolin-4-yl)methanone] are within 1.5-fold of each other in IC50: 30 µM for the first, 31 µM for the second.

For CC(C)(C)S(=O)(=O)N1CCc2c(N)nn(C(=O)C3CCNc4ccc(F)cc43)c2C1 (centres unmarked) [Example 139, (3-amino-6-(tert-butylsulfonyl)-4,5,6,7-tetrahydro-pyrazolo[3,4-c]pyridin-1-yl)(6-fluoro-1,2,3,4-tetrahydro-quinolin-4-yl)methanone], the IC50 was 55 µM.
